Laboratory results from PubChem BioAssay AID1259407 (Chemical Carcinogenesis Research Information System (CCRIS), 2018).
Active and inactive are the calls of the source. How the calls were made is not given here.

Test system: CCRIS mutagenicity, Ames/micronucleus/aberration tests
Assay: CCRIS mutagenicity studies
[1] = Test System: AMES SALMONELLA TYPHIMURIUM, Strain/Indicator: TA98, Metabolic Activation: NONE, Method: STANDARD PLATE
[2] = Test System: AMES SALMONELLA TYPHIMURIUM, Strain/Indicator: TA98, Metabolic Activation: RAT, LIVER, S-9, AROCLOR 1254, Method: STANDARD PLATE
[3] = Test System: AMES SALMONELLA TYPHIMURIUM, Strain/Indicator: TA100, Metabolic Activation: NONE, Method: STANDARD PLATE
[4] = Test System: AMES SALMONELLA TYPHIMURIUM, Strain/Indicator: TA100, Metabolic Activation: RAT, LIVER, S-9, AROCLOR 1254, Method: STANDARD PLATE

For Cn1c([N+](=O)[O-])cnc1-c1nnc(N)s1, the mutagenic call (End Point: IN VITRO CHROMOSOMAL ABERRATIONS, Test System: HUMAN PERIPHERAL LYMPHOCYTES, Species: HUMAN, Strain/Sex: MALE, FEMALE, Metabolic Activation: NONE) was “active; positive (structural changes)”, the mutagenic call (End Point: IN VITRO CHROMOSOMAL ABERRATIONS, Test System: HUMAN PERIPHERAL LYMPHOCYTES, Species: HUMAN, Strain/Sex: MALE, FEMALE, Metabolic Activation: RAT, LIVER, S-9, AROCLOR 1254 (5%)) was “active; positive (structural changes)” and the mutagenic call (End Point: IN VITRO CHROMOSOMAL ABERRATIONS, Test System: HUMAN PERIPHERAL LYMPHOCYTES, Species: HUMAN, Strain/Sex: MALE, FEMALE, Metabolic Activation: RAT, LIVER, S-9, AROCLOR 1254 (10%)) was “active; positive (structural changes)”. The mutagenic call (End Point: IN VITRO MICRONUCLEUS, Test System: L5178Y MOUSE LYMPHOMA (TK+/-), Metabolic Activation: NONE) was “active; positive (increase in micronucleated cells)”, the mutagenic call (End Point: IN VITRO MICRONUCLEUS, Test System: L5178Y MOUSE LYMPHOMA (TK+/-), Metabolic Activation: RAT, LIVER, S-9, AROCLOR 1254) was “active; positive (increase in micronucleated cells)” and the mutagenic call (End Point: IN VIVO MICRONUCLEUS, Test System: BONE MARROW POLYCHROMATIC ERYTHROCYTES, Species: RAT, Strain/Sex: SPRAGUE-DAWLEY/MALE, FEMALE) was “active; positive”. For the same compound, the mutagenic call (End Point: IN VIVO MICRONUCLEUS, Test System: BONE MARROW POLYCHROMATIC ERYTHROCYTES, Species: RAT, Strain/Sex: SPRAGUE-DAWLEY/MALE, FEMALE, Route: ORAL) was “active; positive”, the mutagenic call (Test System: AMES SALMONELLA TYPHIMURIUM, Strain/Indicator: TA98 (DNP-6), Metabolic Activation: NONE, Method: DESICCATOR) was “active; positive” and the mutagenic call (Test System: AMES SALMONELLA TYPHIMURIUM, Strain/Indicator: TA98 (DNP-6), Metabolic Activation: NONE, Method: STANDARD PLATE) was “active; positive”. The mutagenic call (Test System: AMES SALMONELLA TYPHIMURIUM, Strain/Indicator: TA98 (DNP-6), Metabolic Activation: RAT LIVER S-9, AROCLOR 1254, 10% (W/V), Method: DESICCATOR) was “active; positive”, the mutagenic call (Test System: AMES SALMONELLA TYPHIMURIUM, Strain/Indicator: TA98 (DNP-6), Metabolic Activation: RAT LIVER S-9, AROCLOR 1254, 10% (W/V), Method: STANDARD PLATE) was “active; positive” and the mutagenic call (Test System: AMES SALMONELLA TYPHIMURIUM, Strain/Indicator: TA98 (NR), Metabolic Activation: NONE, Method: DESICCATOR) was “inactive; negative”. For the same compound, the mutagenic call (Test System: AMES SALMONELLA TYPHIMURIUM, Strain/Indicator: TA98 (NR), Metabolic Activation: NONE, Method: STANDARD PLATE) was “inactive; negative”, the mutagenic call (Test System: AMES SALMONELLA TYPHIMURIUM, Strain/Indicator: TA98 (NR), Metabolic Activation: RAT LIVER S-9, AROCLOR 1254, 10% (W/V), Method: DESICCATOR) was “inactive; negative” and the mutagenic call (Test System: AMES SALMONELLA TYPHIMURIUM, Strain/Indicator: TA98 (NR), Metabolic Activation: RAT LIVER S-9, AROCLOR 1254, 10% (W/V), Method: STANDARD PLATE) was “inactive; negative”. For the same compound, the mutagenic call (Test System: AMES SALMONELLA TYPHIMURIUM, Strain/Indicator: TA98, Metabolic Activation: NONE, Method: DESICCATOR) was “active; positive”, the mutagenic call [1] was “active; positive” and the mutagenic call (Test System: AMES SALMONELLA TYPHIMURIUM, Strain/Indicator: TA98, Metabolic Activation: RAT LIVER S-9, AROCLOR 1254, 10% (W/V), Method: DESICCATOR) was “active; positive”. The mutagenic call (Test System: AMES SALMONELLA TYPHIMURIUM, Strain/Indicator: TA98, Metabolic Activation: RAT LIVER S-9, AROCLOR 1254, 10% (W/V), Method: STANDARD PLATE) was “active; positive”, the mutagenic call [2] was “active; positive” and the mutagenic call (Test System: AMES SALMONELLA TYPHIMURIUM, Strain/Indicator: TA102, Metabolic Activation: NONE, Method: STANDARD PLATE) was “active; positive”. The mutagenic call (Test System: AMES SALMONELLA TYPHIMURIUM, Strain/Indicator: TA102, Metabolic Activation: RAT, LIVER, S-9, AROCLOR 1254, Method: STANDARD PLATE) was “active; positive”.
In the case of CC12OOC1(C)c1ccc3cccnc3c1O2 (stereo not given), the mutagenic call (Test System: AMES SALMONELLA TYPHIMURIUM, Strain/Indicator: TA100, Metabolic Activation: NONE, Method: PREINCUBATION) is reported as “inactive; negative”.
In the case of Cn1ccnc1[N+](=O)[O-], the mutagenic call [3] is reported as “active; positive”.
For N=C(N)c1ccc(-c2cc3ccc(C(=N)N)cc3s2)cc1, the mutagenic call [1] was “inactive; negative”, the mutagenic call (Test System: AMES SALMONELLA TYPHIMURIUM, Strain/Indicator: TA98, Metabolic Activation: RAT, LIVER, S-9, PHENOBARBITAL, Method: STANDARD PLATE) was “inactive; negative” and the mutagenic call [3] was “inactive; negative”. The mutagenic call (Test System: AMES SALMONELLA TYPHIMURIUM, Strain/Indicator: TA100, Metabolic Activation: RAT, LIVER, S-9, PHENOBARBITAL, Method: STANDARD PLATE) was “inactive; negative”.
With Oc1cccc2[nH]c3ccccc3c12 the mutagenic call (Test System: CHINESE HAMSTER OVARY, Strain/Indicator: CHO-K1-BH4 (HGPRT)/6-THIOGUANINE, Metabolic Activation: RAT, LIVER, S-9, AROCLOR (4%)) was “active; positive”.
With CC(=O)ON(C(C)=O)c1ccccc1C the mutagenic call [1] was “inactive; negative”, the mutagenic call [2] was “inactive; negative” and the mutagenic call [3] was “inactive; negative”. The mutagenic call [4] was “inactive; negative”.
C=C(C)c1ccc(C)c2ccc(C=O)c-2c1 was tested, and the mutagenic call [1] was “inactive; negative”, the mutagenic call [2] was “active; positive” and the mutagenic call [3] was “inactive; negative”. The mutagenic call [4] was “active; positive”.
With CN1CC[C@@]2(C)c3cc(O)ccc3N(C)[C@@H]12 the mutagenic call (Test System: AMES SALMONELLA TYPHIMURIUM, Strain/Indicator: TA97, Metabolic Activation: NONE, Method: STANDARD PLATE) was “inactive; negative”, the mutagenic call (Test System: AMES SALMONELLA TYPHIMURIUM, Strain/Indicator: TA97, Metabolic Activation: S-9, Method: STANDARD PLATE) was “inactive; negative” and the mutagenic call [1] was “inactive; negative”. For the same compound, the mutagenic call (Test System: AMES SALMONELLA TYPHIMURIUM, Strain/Indicator: TA98, Metabolic Activation: S-9, Method: STANDARD PLATE) was “inactive; negative”, the mutagenic call [3] was “inactive; negative” and the mutagenic call (Test System: AMES SALMONELLA TYPHIMURIUM, Strain/Indicator: TA100, Metabolic Activation: S-9, Method: STANDARD PLATE) was “inactive; negative”. For the same compound, the mutagenic call (Test System: AMES SALMONELLA TYPHIMURIUM, Strain/Indicator: TA104, Metabolic Activation: NONE, Method: STANDARD PLATE) was “inactive; negative”, the mutagenic call (Test System: AMES SALMONELLA TYPHIMURIUM, Strain/Indicator: TA104, Metabolic Activation: S-9, Method: STANDARD PLATE) was “inactive; negative” and the mutagenic call (Test System: AMES SALMONELLA TYPHIMURIUM, Strain/Indicator: TA1535, Metabolic Activation: NONE, Method: STANDARD PLATE) was “inactive; negative”. The mutagenic call (Test System: AMES SALMONELLA TYPHIMURIUM, Strain/Indicator: TA1535, Metabolic Activation: S-9, Method: STANDARD PLATE) was “inactive; negative”, the mutagenic call (Test System: AMES SALMONELLA TYPHIMURIUM, Strain/Indicator: TA1537, Metabolic Activation: NONE, Method: STANDARD PLATE) was “inactive; negative” and the mutagenic call (Test System: AMES SALMONELLA TYPHIMURIUM, Strain/Indicator: TA1537, Metabolic Activation: S-9, Method: STANDARD PLATE) was “inactive; negative”. The mutagenic call (Test System: AMES SALMONELLA TYPHIMURIUM, Strain/Indicator: TA1538, Metabolic Activation: S-9, Method: STANDARD PLATE) was “inactive; negative”.
